Assay [1] has as its target DNA repair protein RAD51 homolog 1 (Homo sapiens) (UniProt Q06609). The assay is described as follows: Inhibition of RAD51 (unknown origin) binding to ssDNA.
Assay [2] addresses T1, DNA repair protein RAD51 homolog 1 (Homo sapiens) (UniProt Q06609).
T1 sequence (whole entry): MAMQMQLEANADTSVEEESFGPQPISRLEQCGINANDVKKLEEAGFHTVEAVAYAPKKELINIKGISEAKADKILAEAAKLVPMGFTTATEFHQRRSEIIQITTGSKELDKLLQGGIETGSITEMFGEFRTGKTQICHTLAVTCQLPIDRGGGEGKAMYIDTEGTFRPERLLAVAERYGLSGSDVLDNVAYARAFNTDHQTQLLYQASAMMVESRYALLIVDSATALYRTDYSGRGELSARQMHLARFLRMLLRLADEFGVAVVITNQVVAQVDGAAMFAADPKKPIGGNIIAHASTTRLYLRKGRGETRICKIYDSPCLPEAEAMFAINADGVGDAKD
In words: Induction of RAD51 in cisplatin-treated neonatal human skin fibroblast assessed as increase in survival at 7.5 uM relative to untreated control.

The target in assay [3] is T2, DNA repair and recombination protein RAD54-like (Homo sapiens, UniProt Q92698).
T2 sequence (Q92698 whole entry): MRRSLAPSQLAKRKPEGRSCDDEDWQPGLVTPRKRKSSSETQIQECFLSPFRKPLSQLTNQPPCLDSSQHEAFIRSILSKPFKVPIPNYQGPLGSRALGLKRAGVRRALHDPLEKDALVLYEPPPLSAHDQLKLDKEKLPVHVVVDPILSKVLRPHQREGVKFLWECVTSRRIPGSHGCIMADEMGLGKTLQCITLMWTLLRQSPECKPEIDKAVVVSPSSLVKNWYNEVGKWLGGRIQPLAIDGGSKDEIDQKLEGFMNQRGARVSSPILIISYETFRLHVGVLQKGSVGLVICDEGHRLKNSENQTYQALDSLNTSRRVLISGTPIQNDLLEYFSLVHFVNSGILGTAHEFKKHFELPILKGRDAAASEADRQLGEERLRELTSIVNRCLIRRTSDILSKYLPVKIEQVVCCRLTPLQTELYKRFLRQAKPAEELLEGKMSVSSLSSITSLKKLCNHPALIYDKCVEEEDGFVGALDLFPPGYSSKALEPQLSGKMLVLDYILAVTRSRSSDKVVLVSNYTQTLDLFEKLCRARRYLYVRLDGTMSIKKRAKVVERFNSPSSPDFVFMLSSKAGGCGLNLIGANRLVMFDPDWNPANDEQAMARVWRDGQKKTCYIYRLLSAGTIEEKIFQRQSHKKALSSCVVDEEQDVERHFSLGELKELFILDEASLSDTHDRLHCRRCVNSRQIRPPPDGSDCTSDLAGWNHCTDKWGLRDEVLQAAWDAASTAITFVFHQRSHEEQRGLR
The assay is described as follows: Inhibition of RAD54 (unknown origin) ATPase activity assessed as generation of reactive oxygen species.

The target in assay [4] is T1, DNA repair protein RAD51 homolog 1 (Homo sapiens). The assay is described as follows: Inhibition of RAD51 in human HeLa cells expressing DR-GFP construct assessed as reduction in […]-induced homologous recombination at 20 uM. The assay is classed as cell-based.
Assay [5] has the same target. In words: Inhibition of RAD51 in human MCF7 cells assessed as reduction in IR-induced RAD51 foci formation at 20 uM. The assay is classed as cell-based.
The target in assay [6] is Bifunctional 3'-5' exonuclease/ATP-dependent helicase WRN (Homo sapiens, UniProt Q14191). In words: Inhibition of WRN helicase (unknown origin).
Chain of Bifunctional 3'-5' exonuclease/ATP-dependent helicase WRN (Q14191 whole entry): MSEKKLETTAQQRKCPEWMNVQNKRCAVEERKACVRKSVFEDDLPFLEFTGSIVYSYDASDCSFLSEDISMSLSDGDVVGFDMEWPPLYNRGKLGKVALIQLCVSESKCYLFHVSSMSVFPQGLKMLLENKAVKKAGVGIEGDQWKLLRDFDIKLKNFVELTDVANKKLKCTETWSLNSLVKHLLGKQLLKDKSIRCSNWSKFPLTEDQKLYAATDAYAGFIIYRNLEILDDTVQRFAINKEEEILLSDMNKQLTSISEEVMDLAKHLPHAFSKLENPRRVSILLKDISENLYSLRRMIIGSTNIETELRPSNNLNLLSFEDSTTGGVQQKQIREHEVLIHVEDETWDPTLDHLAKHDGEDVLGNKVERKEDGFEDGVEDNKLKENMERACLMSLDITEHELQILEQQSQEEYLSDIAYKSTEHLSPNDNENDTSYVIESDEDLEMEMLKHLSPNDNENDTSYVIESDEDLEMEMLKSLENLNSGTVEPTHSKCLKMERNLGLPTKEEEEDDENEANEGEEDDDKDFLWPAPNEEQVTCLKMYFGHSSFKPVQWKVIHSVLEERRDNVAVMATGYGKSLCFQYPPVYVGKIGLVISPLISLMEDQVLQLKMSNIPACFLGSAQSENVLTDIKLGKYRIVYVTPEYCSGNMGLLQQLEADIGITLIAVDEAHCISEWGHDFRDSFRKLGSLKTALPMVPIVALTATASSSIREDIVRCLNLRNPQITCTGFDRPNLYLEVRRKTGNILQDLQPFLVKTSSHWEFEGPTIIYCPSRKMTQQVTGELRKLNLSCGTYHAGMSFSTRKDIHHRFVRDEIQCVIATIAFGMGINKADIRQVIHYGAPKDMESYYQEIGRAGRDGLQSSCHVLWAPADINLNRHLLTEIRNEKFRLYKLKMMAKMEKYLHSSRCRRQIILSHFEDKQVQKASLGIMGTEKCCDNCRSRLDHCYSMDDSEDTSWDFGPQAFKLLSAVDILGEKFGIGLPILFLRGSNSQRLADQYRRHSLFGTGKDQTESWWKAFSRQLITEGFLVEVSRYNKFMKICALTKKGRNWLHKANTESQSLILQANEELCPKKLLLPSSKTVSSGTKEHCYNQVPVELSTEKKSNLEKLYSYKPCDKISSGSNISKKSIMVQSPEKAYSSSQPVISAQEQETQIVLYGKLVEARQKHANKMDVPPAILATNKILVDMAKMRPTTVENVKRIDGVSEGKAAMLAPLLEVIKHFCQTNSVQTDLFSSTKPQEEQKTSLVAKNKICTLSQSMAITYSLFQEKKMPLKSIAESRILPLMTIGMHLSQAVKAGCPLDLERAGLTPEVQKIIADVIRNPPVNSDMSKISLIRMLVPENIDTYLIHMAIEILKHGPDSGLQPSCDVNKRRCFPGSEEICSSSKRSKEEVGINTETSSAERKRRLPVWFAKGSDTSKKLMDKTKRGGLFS

This is an account of results in ChEMBL document CHEMBL3352588, “Targeting the homologous recombination pathway by small molecule modulators” (Bioorg Med Chem Lett, 2014).

`COc1ccc(C2=C(N3CCOCC3)C(=O)N(c3ccc(Cl)c(Cl)c3)C2=O)cc1`: in assay [1], the EC50 (in general, the midpoint of the concentration-response curve) worked out at 44 µM.

Turning to `O=C(Nc1ccc(Br)cc1)c1ccc(Br)c(S(=O)(=O)NCc2ccccc2)c1`, the fold change (FC) in assay [2] was determined as 1.5.

Regarding `COC1=C(N)C(=O)c2nc(-c3nc(C(=O)O)c(C)c(-c4ccc(OC)c(OC)c4O)c3N)ccc2C1=O` [STREPTONIGRIN], in assay [3], the EC50 was 16.5 µM.

Turning to `O=S(=O)(Cc1ccccc1)N1C=Cc2ccccc2C1c1c[nH]c2ccccc12` (configuration not stated), the fold change (FC) in assay [4] was 10; in assay [5] it was 2.

Turning to `CCC(=O)OCN1C(=O)C=CC1=O`, in assay [6], 20 µM corresponded to half-maximal inhibition (IC50).

As for `O=C(Nc1ccc(F)c(C(F)(F)F)c1)Nc1nnc(-c2ccncc2)s1`, the IC50 (usually the concentration that inhibits the measured activity by half) in assay [6] came to 5 µM.
